According to patent US20100061928A1, “LABELLED ANALOGUES OF HALOBENZAMIDES AS RADIOPHARMACEUTICALS” (Institut National De La Sante et De La Recherche Medicale …, priority 2006, published 2010):
Counter-ions that a name gives are not always drawn.

Columns and labels:
[1] = Elimination of the molecules: cumulative urinary and faecal excretion 0-72 hours; type: in vivo, mouse; conditions: for Faecal elimination 0-72 hours (Faeces) / Urinary and faecal elimination 0-72 hours (Total) / Urinary elimination 0-72 hours (Urine): cumulative excretion 0-72 hours; for Faecal elimination 0-72 hours (Faeces) / Urinary elimination 0-72 hours (Urine): mice in metabolic cages; for Urinary and faecal elimination 0-72 hours (Total): urine + faeces
[2] = system: tumour; experiment: Dosimetry with regard to the tumour (MIRD programme, extrapolated to ^131I); conditions: for Effective period: extrapolated to 131I labelling; for Biological period: from biodistribution data
[3] = system: grafted B16 F0 murine melanoma tumour; experiment: Biodistribution of the ^125I-labelled molecules in the melanoma-bearing mouse (autoradiography of whole-body sections); conditions: for Biodistribution, Mean, B 16: B 16 tumour

## CCN(CC)CCNC(=O)c1cc2c(I)cccc2cn1 [compound 39, N-(2-diethylaminoethyl)-5-iodoisoquinoline-3-carboxamide dihydrochloride]
[1]
  Faecal elimination 0-72 hours (Faeces): 21.2%
  Urinary and faecal elimination 0-72 hours (Total): 71.1%
  Urinary elimination 0-72 hours (Urine): 49.9%
[2]
  Effective period: 43.6 h
  Biological period: 56.3 hours
[3]; 1 H
  Biodistribution, Mean, B 16: 7.27
  Biodistribution, Mean, Ic: 42.97
  Biodistribution, Mean, Sc: 23.01
  Biodistribution, Mean, blood: 2.15
  Biodistribution, Mean, brain: 0.30
  Biodistribution, Mean, kidney: 4.62
  Biodistribution, Mean, liver: 3.86
  Biodistribution, Mean, lungs: 3.68
  Biodistribution, Mean, muscle: 0.74
  Biodistribution, Mean, pancreas: 2.39
  Biodistribution, Mean, spleen: 2.83
  Biodistribution, Mean, thyroid: 16.88
  Biodistribution, Mean, uvea: 18.08
[3]; 3 H
  Biodistribution, Mean, B 16: 7.12
  Biodistribution, Mean, Ic: 68.64
  Biodistribution, Mean, Sc: 19.05
  Biodistribution, Mean, blood: 2.65
  Biodistribution, Mean, brain: 0.09
  Biodistribution, Mean, kidney: 2.66
  Biodistribution, Mean, liver: 2.02
  Biodistribution, Mean, lungs: 2.76
  Biodistribution, Mean, muscle: 0.43
  Biodistribution, Mean, thyroid: 35.71
  Biodistribution, Mean, uvea: 13.87
[3]; 6 H
  Biodistribution, Mean, B 16: 7.92
  Biodistribution, Mean, Ic: 29.16
  Biodistribution, Mean, Sc: 28.44
  Biodistribution, Mean, blood: 2.17
  Biodistribution, Mean, kidney: 2.11
  Biodistribution, Mean, liver: 1.54
  Biodistribution, Mean, lungs: 2.05
  Biodistribution, Mean, thyroid: 48.93
  Biodistribution, Mean, uvea: 18.02
[3]; 24 H
  Biodistribution, Mean, B 16: 7.05
  Biodistribution, Mean, Ic: 1.70
  Biodistribution, Mean, Sc: 0.75
  Biodistribution, Mean, liver: 0.43
  Biodistribution, Mean, thyroid: 88.65
  Biodistribution, Mean, uvea: 14.55
[3]; 72 H
  Biodistribution, Mean, B 16: 3.13
  Biodistribution, Mean, spleen: 1.62
  Biodistribution, Mean, thyroid: 132.79
  Biodistribution, Mean, uvea: 9.73

## CCN(CC)CCNC(=O)c1cnc2cc(I)ccc2n1.Cl.Cl [compound 46, N-(2-diethylaminoethyl)-6-iodoquinoxaline-2-carboxamide dihydrochloride]
[1]
  Faecal elimination 0-72 hours (Faeces): 18.0%
  Urinary and faecal elimination 0-72 hours (Total): 88.2%
  Urinary elimination 0-72 hours (Urine): 70.2%
[1]; urinary versus faecal, 0-72 hours
  elimination route (in words): predominantly in the urine
[2]
  Effective period: 49.3 h
  Biological period: 66.1 hours
[3]; 1 H
  Biodistribution, Mean, B 16: 17.00
  Biodistribution, Mean, Ic: 15.22
  Biodistribution, Mean, Sc: 24.33
  Biodistribution, Mean, blood: 3.45
  Biodistribution, Mean, brain: 2.34
  Biodistribution, Mean, kidney: 16.46
  Biodistribution, Mean, liver: 13.18
  Biodistribution, Mean, lungs: 7.83
  Biodistribution, Mean, muscle: 2.04
  Biodistribution, Mean, pancreas: 7.60
  Biodistribution, Mean, spleen: 14.21
  Biodistribution, Mean, uvea: 33.82
[3]; 3 H
  Biodistribution, Mean, B 16: 27.68
  Biodistribution, Mean, Ic: 14.63
  Biodistribution, Mean, Sc: 20.33
  Biodistribution, Mean, blood: 2.91
  Biodistribution, Mean, brain: 1.03
  Biodistribution, Mean, kidney: 9.30
  Biodistribution, Mean, liver: 8.87
  Biodistribution, Mean, lungs: 5.68
  Biodistribution, Mean, muscle: 0.86
  Biodistribution, Mean, spleen: 4.69
  Biodistribution, Mean, thyroid: 39.76
  Biodistribution, Mean, uvea: 24.79
[3]; 6 H
  Biodistribution, Mean, B 16: 40.70
  Biodistribution, Mean, Ic: 17.45
  Biodistribution, Mean, Sc: 21.09
  Biodistribution, Mean, blood: 3.09
  Biodistribution, Mean, kidney: 7.69
  Biodistribution, Mean, liver: 7.53
  Biodistribution, Mean, lungs: 4.46
  Biodistribution, Mean, muscle: 0.87
  Biodistribution, Mean, thyroid: 83.77
  Biodistribution, Mean, uvea: 32.30
[3]; 24 H
  Biodistribution, Mean, B 16: 21.67
  Biodistribution, Mean, liver: 1.49
  Biodistribution, Mean, thyroid: 94.22
  Biodistribution, Mean, uvea: 32.44
[3]; 72 H
  Biodistribution, Mean, B 16: 12.45
  Biodistribution, Mean, Sc: 2.23
  Biodistribution, Mean, uvea: 25.26
[3]; BM, 1 H
  Biodistribution, Mean, BM: 4.58
[3]; GB, 6 H
  Biodistribution, Mean, GB: 33.38
[3]; at 72 hours (FIG. 1B)
  tumour concentration, times higher than with BZA: 16 times
[3]; from the first hour
  tumour concentration, % of the injected dose per gram of tumour: 17 % ID/g
